Experimental data published in BindingDB's records for doi:10.1016/j.ejmech.2023.115129 (n/a, 2023).

Target: Replicase polyprotein 1ab (Severe acute respiratory syndrome coronavirus 2, UniProt P0DTD1)
Assay: Inhibition of full-length recombinant SARS-CoV-2 3CL protease expressed in Escherichia coli BL21 (DE3) cells using fluorogenic MCA-AVLQSGFR-Lys (Dnp)-Lys-NH2 substrate preincubated for 10 mins followed by substrate addition measured for 3.5 mins by FRET assay

C/N=c1\nc(-c2ccc(OC)c(OC)c2)n(-c2ccc(F)cc2)s1
IC50: 252 nM
